Assay results: patent US6235493A, “Amino acid substituted-cresyl violet, synthetic fluorogenic substrates for the analysis of agents in individual in vivo cells or tissue” (priority 1998, dated 2001)
“And” between values parts separate entries of the source, which are not always exact repeats. Equal values may be shown once. Starred links: 1 amine or outer side, 2 acyl side, 3 side chain; linkers in the order of their positions; H or OH if unused. Non-standard residues stand in square brackets, D forms with d. Residues, ends and D or L forms follow the SMILES beside them. *: point of attachment. hPhe = N[C@@H](CCc1ccccc1)C(=O)O; Morpholide = C1CN(*)CCO1; CO = O=C([*:1])[*:2]; CH2F = FC*

Columns and labels:
cathepsin B = cathepsin B (Rattus norvegicus, UniProt P00787); test: Cathepsin B activity in homogenates of liver lobes of rats after oral FMK treatment; format: in vivo; conditions: 20 mg FMK per kg body weight daily, 14 days, all four lobes
Sequence of cathepsin B (P00787 80-333): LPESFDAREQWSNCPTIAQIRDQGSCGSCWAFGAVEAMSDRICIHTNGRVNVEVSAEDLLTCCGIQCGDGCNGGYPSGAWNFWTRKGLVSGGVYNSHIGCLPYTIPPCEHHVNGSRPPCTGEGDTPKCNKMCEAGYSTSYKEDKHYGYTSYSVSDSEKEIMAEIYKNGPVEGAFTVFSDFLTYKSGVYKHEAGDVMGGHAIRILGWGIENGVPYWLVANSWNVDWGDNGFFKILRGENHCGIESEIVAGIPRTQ
Procedure: (§1) Sixteen rats were treated orally with 20 mg FMK per kg body weight dissolved in PBS and 5% dimethylformamide daily for 14 days starting one week before administration of the CC531 cells and continuing until sacrifice. Oral administration was performed directly into the stomach with a plastic tube attached to a syringe. Dosage and type of treatment were selected on the basis of previous experiments in which rats were treated with FMK-related inhibitors of cathepsins (34,40,53). The other 16 animals were treated similarly with PBS and dimethylformamide only. The LD50 of this type of FMK is at least 20-fold higher than the dosages used in the present experiment (40,53).
Cathepsin B activity was determined in homogenates obtained from each individual liver lobe of all rats according to Cox and Eley (56) with the use of the fluorogenic substrate CBZ-Ala-Arg-Arg-7-amino-4-trifluoromethylcoumarin (Enzyme Systems Products, Dublin, Calif.).
Whether or not the two weeks of oral treatment with the inhibitor had the same effect on cathepsin B activity in all liver lobes was determined.

[1] = cited from earlier work
[2] = cited from earlier work; remark: listed apart in the source
CC531 colon cancer cells = test: Colon cancer (CC531) metastasis in rat liver: number and volume of tumors per lobe; format: in vivo
Procedure: Induction of Metastasis in Rat Liver
Colon carcinoma tumors were induced in rat liver by injection of a single cell suspension containing 1×10^6 CC531 cells into the portal vein of 32 mature male WAG-Rij rats, weighing 180-200 g (Broekman, Someren, The Netherlands) as described previously in detail (46,51,52).
Treatment of Rats with FMK
as §1
Preparation of Cryostat Sections of Liver
Seven days after administration of CC531 cells, the animals were weighed and sacrificed with an overdose of sodium pentobarbital. Livers were removed immediately, the individual lobes were weighed and dissected and cut into small pieces (up to 5 mm thick) according to a rigid dissection scheme. The left lateral lobe was cut into eight pieces, the median lobe into nine pieces, the right lateral and caudate lobes into four pieces. Tissue fragments were frozen in liquid nitrogen and the material was kept at -80° C. until further use. Twenty-one sites were randomly selected in all lobes of each liver before the experiments were carried out. From these sites, sections (8 μm thick) were cut on a motor-drivencryostat with a rotary retracting microtome (Bright, Huntingdon, UK) at a constant but low speed and a cabinet temperature of -25° C. Sections were picked up onto clean glass slides and stored in the cryostat cabinet until used. These methods have been described in detail in Reference 54.
Staining of Tissue Sections
To facilitate recognition of cancer cells, cryostat sections were stained either with the periodic acid Schiff (PAS) reaction (54) or immunohistochemically using the lectin Ulex europaeus agglutinin I (Dako, Glostrup, Denmark), a selective marker of CC531 cells in rat (51,55). Immunocompetenet cells, endothelial cells and components of the extracellular matrix were localized with a panel of antibodies (Table 1) as described in detail by Griffini et al. (52). Control incubations were performed by replacing the first antibodies by non-immune sera in the same dilutions.
For calculation of the number and percentage volume of tumors in each liver lobe, the 8 micron thick sections were analyzed morphometrically using a Quantimet Q500 (Leica, Cambridge, UK) after staining with the lectin Ulex for the detection of cancer cells. The number of tumors was expressed per unit volume of liver tissue ±standard error of the mean or as ratio of the number of tumors in FMK-treated rats and those in untreated rats (×100). The percentage volume of tumors was expressed as the ratio of the volume of tumors and the total volume of the liver tissue including tumors ±standard error of the mean. Statistical analysis was performed with the 2-tailed Mann-Whitney test using the software program JPM (SAS Institute, Cary, N.C.).
The number of tumors is expressed per unit volume of liver tissue ± SEM or as the ratio of the number of tumors in treated rats compared with untreated rats (×100; %) as determined morphometrically in 8 μm thick cryostat sections stained with the lectin Ulex europaeus agglutinin I. Differences in number of tumors in left lateral and median lobes but not in right lateral and caudate lobes between treated and untreated animals were significant (P=0.006 and P=0.1, respectively). […]

[3] = Body weight and liver weight of FMK-treated rats; format: in vivo, rat; conditions: 20 mg FMK/kg daily oral 14 days
Procedure: as §1
Seven days after administration of CC531 cells, the animals were weighed and sacrificed with an overdose of sodium pentobarbital. Livers were removed immediately, the individual lobes were weighed and dissected and cut into small pieces (up to 5 mm thick) according to a rigid dissection scheme. The left lateral lobe was cut into eight pieces, the median lobe into nine pieces, the right lateral and caudate lobes into four pieces. […]
Significant differences between the caudate lobe and the other liver lobes with respect to the endothelial compartment or distribution patterns of extracellular matrix compounds (see Table 1 for specification of parameters investigated) could not be detected either.

[4] = 20 mg FMK/kg daily oral 14 days
[5] = +FMK, 20 mg/kg daily oral 14 days, ± SEM, n = 16
[6] = weighted by relative lobe wet weight

O=C(CF)[C@H](CCc1ccccc1)NC(=O)[C@H](Cc1ccccc1)NC(=O)N1CCOCC1 [FMK, Mu-Phe-homoPhe-fluoro-methylketone] ({Morpholide-CO}-Phe-[hPhe]-CH2F)
inhibition of cathepsin B activity in liver lobes (cathepsin B): ~50% and 51±14%
toxicity [1]: non-toxic
LD50 relative to the dosages used (20 mg/kg) ([1]; this type of FMK): at least 20 fold
water solubility [2]: water-soluble
ratio of number of tumors in treated vs untreated rats (×100), caudate lobe (CC531 colon cancer cells; [4]): 278%
ratio of number of tumors in treated vs untreated rats (×100), left lateral lobe (CC531 colon cancer cells; [4]): 24%
ratio of number of tumors in treated vs untreated rats (×100), median lobe (CC531 colon cancer cells; [4]): 24%
ratio of number of tumors in treated vs untreated rats (×100), right lateral lobe (CC531 colon cancer cells; [4]): 91%
ratio of percentage volumes in treated and untreated rats (×100), caudate lobe (CC531 colon cancer cells; [4]): 283%
ratio of percentage volumes in treated and untreated rats (×100), left lateral lobe (CC531 colon cancer cells; [4]): 17%
ratio of percentage volumes in treated and untreated rats (×100), median lobe (CC531 colon cancer cells; [4]): 3%
ratio of percentage volumes in treated and untreated rats (×100), right lateral lobe (CC531 colon cancer cells; [4]): 35%
average size of tumors in large lobes, treated relative to untreated (CC531 colon cancer cells; 20 mg FMK/kg per day): 40%
effect on number of tumors in the caudate lobe (CC531 colon cancer cells; 20 mg FMK/kg per day): increased rather than decreased, although the difference was not significant
effect on size of tumors in the caudate lobe (CC531 colon cancer cells; 20 mg FMK/kg per day): not affected
number of tumors per unit volume in caudate lobe vs other lobes in treated rats (CC531 colon cancer cells; 20 mg FMK/kg per day): 20 fold
reduction of total volume of tumors in the large lobes (average) (CC531 colon cancer cells; 20 mg FMK/kg per day): 80%
reduction of number of tumors in the large lobes (average) (CC531 colon cancer cells; 20 mg FMK/kg per day, one week before until one week after cells): 60%
number of tumors, caudate lobe (CC531 colon cancer cells; [5]): 14.2 ± 7.5 per unit volume of liver tissu
number of tumors, left lateral lobe (CC531 colon cancer cells; [5]): 0.5 ± 0.2 per unit volume of liver tissu
number of tumors, median lobe (CC531 colon cancer cells; [5]): 0.4 ± 0.2 per unit volume of liver tissu
number of tumors, right lateral lobe (CC531 colon cancer cells; [5]): 1.0 ± 0.4 per unit volume of liver tissu
percentage volume of tumors, caudate lobe (CC531 colon cancer cells; [5]): 49.8 ± 38.5%
percentage volume of tumors, left lateral lobe (CC531 colon cancer cells; [5]): 1.4 ± 0.5%
percentage volume of tumors, median lobe (CC531 colon cancer cells; [5]): 0.3 ± 0.6%
percentage volume of tumors, right lateral lobe (CC531 colon cancer cells; [5]): 1.1 ± 0.2%
effect on number or size of metastases, caudate lobe (CC531 colon cancer cells; in vivo treatment with FMK): does not reduce number or size of metastases
reduction of mean number of tumors in the entire liver (CC531 colon cancer cells; [6]): 35%
reduction of mean volume of tumors in the entire liver (CC531 colon cancer cells; [6]): 57%
effect on body weight, total liver weight or weight of individual lobes [3]: did not affect body weight, total liver weight or the weight of the individual lobes
